In ChEMBL document CHEMBL1147374, “Chemical constituents of Aristolochia rigida and mutagenic activity of aristolochic acid IV” (J Nat Prod, 1993):

Assays:
Settings in all cases: salmonella enterica subsp. enterica serovar typhimurium; call rule not given here
Salmonella typhimurium [1] = experiment: Mutagenic activity in Salmonella Typhimurium TA100 assessed as increase in number of histidine revertants up to 100 ug/plate after 48 hrs in presence of rat S9 liver homogenate by Ames test; type: toxicity, organism-based, Liver S9 fraction
Salmonella typhimurium [2] = experiment: Toxicity in Salmonella Typhimurium TA100 up to 100 ug/plate; type: organism-based
Salmonella typhimurium [3] = experiment: Mutagenic activity in Salmonella typhimurium TA100 assessed as number of histidine revertants after 48 hrs in presence of phenobarbital treated rat S9 liver homogenate by Ames test; type: toxicity, organism-based, Liver S9 fraction
Salmonella typhimurium [4] = experiment: Toxicity in Salmonella Typhimurium TA100 at 500 ug/plate; type: organism-based

## COc1cc(OC)c2cc([N+](=O)[O-])c3c(C(=O)O)cc4c(c3c2c1)OCO4 [ARISTOLOCHIC ACID IV]
Salmonella typhimurium [1]
  Activity: Active
Salmonella typhimurium [2]
  Activity: Non-toxic
Salmonella typhimurium [3]
  Activity: Dose-dependent effect
Salmonella typhimurium [4]
  Activity: Toxic
